Structures can show the parent of a compound that is named as a salt.
Legend:
[1] = Acute toxicity (LD50, up-and-down method); conditions: in vivo; iv, tail vein, ddN male mouse; * fumarate, ** oxalate
Procedure: LD50 was determined by a known up-and-down method using ddN male mouse. The test compound was dissolved in a physiological saline solution, and the resulting solution was administered into the mouse through the tail vein.

[2] = test system: anemic decerebrated rigidity; assay: Effect on anemic decerebrated rigidity (rigidity relieving effect, EMG of forelimb M. triceps brachii); assay type: in vivo, rat (Wister male rats); conditions: rat; for inhibition in vivo at 3 mg/kg: iv, 10 min, 3 mg/kg through the femoral vein, 10 minutes after administration, * fumarate, ** oxalate, read-out: Relieving Rate (suppression rate of EMG)
Procedure: The experiment was performed using specimen of anemic decerebrated rigidity produced in rats according to the method of Fukuda, H., Ito, T., Hashimoto, S., and Kudo, Y.; Japan, J., Pharmacol., 24, 810 (1974). Wister male rats (body weight: 270 to 350 g) were held on their backs and incised at their cervices under etherization. After the trachea and common carotid arteries were exposed, the trachea was cannulated and the bilateral common carotid arteries and esophagus were then double-[…] cut. Subsequently, its occipital bone was exposed through which a circular hole was bored to double-ligate the centrally extending basilar artery. As each rat started coming out of anesthetization, its front limbs became rigid. Measurement was conducted by recording electromyographic (EMG) response from the muscle of the forelimb (M. triceps brachii) of the rat in the rigid state. The EMG pulses were converted to accumulated values every 10 seconds and recorded as a histogram on a recorder. The effect of each test compound on the rigidity was evaluated in terms of the suppression rate. This rate was calculated first by determining the area (see FIG. 1) of a decreased EMG pulse part on the histrograpm upon passage of 10 minutes after administration of a physiological saline solution of each test compound (3 mg/kg) through the femoral vein and then in accordance with the following equation: Suppression rate (%)=(a/A)×100 wherein a means an EMG pulse area decreased as a result of the administration of the test compound; and A means an EMG pulse area observed when no test compound was administered (control).

[3] = test system: glutamic acid at neuromuscular junctions of crayfish (opener muscles of the first walking legs); assay: Blocking effects on glutamic acid at neuromuscular junctions of crayfish (suppression of L-glutamic acid-induced depolarization); conditions: test compound 2×10^-4 M, 5-minute pretreatment; L-glutamic acid 10^-4 M; 200 µM
Procedure: The method of Ishida et al., [(J. Physiol., 298, 301-319 (1980)] and that of Shinozaki et al. [Comp. Biochem. Physiol., 70c, 49-58 (1981)] were followed. The opener muscles of the first walking legs of crayfish were used as experimental materials. The neuromuscular sample was held in a bath in which a physiologicl solution [NaCl (195 mM), CaCl2 (18 mM, KCl (5.4 mM), tris-maleate buffer (pH 7.5, 10 mM), and glucose (11 mM)] for use with the cray fish was perfused at room temperature and at a constant flow rate. A glass micro-electrode filled with a 3M-KCl solution was inserted in a central part of the muscle fiber to intracellularly record the changes in the potential of the muscular cell membrane.
The blocking effect of each test compound on glutamic acid was evaluated in terms of the suppression rate to depolarization which was induced by bath-applying L-glutamic acid (10^-4 M) in a 5-minute pretreatment with a solution of the test compound (2×10^-4 M).

SMILES | LD50 [1] [mg/kg] | inhibition in vivo at 3 mg/kg [2] [%] | Glutamic Acid-Blocking Rate (suppression rate to depolarization) [3] [%] | rigidity relieving effect (in words) ([2]; in vivo)
CCN(CC)CCC(NC(=O)c1ccc2ccccc2n1)c1ccccc1 (centres unmarked) [Compound 2, N-(3-diethylamino-1-phenylpropyl)quinaldinamide] | 18.9 | 24.6 |  | 
O=C(NC(CCN1CCCC1)c1ccccc1)c1ccc2ccccc2n1 (centres unmarked) [Compound 4, N-(1-phenyl-3-pyrrolidinopropyl)quinaldinamide] | 17.2 | 19.6 |  | 
O=C(NC(CCN1CCCCC1)c1ccccc1)c1ccc2ccccc2n1 (centres unmarked) [Compound 5, N-(1-phenyl-3-piperidinopropyl)quinaldinamide] | 24.8 | 18.8 | 66 | 
O=C(NC(CCN1CCCCCC1)c1ccccc1)c1ccc2ccccc2n1 (centres unmarked) [Compound 6, N-[3-(perhydroazepin-1-yl)-1-phenylpropyl]quinaldinamide] | 15.2 | 12.2 |  | 
Cc1ccccc1C(CCN1CCCCC1)NC(=O)c1ccc2ccccc2n1 (centres unmarked) [Compound 7, N-[1-(2-methylphenyl)-3-piperidinopropyl]quinaldinamide] | 23.5 | 11.2 |  | 
Cc1cccc(C(CCN2CCCCC2)NC(=O)c2ccc3ccccc3n2)c1 (centres unmarked) [Compound 8, N-[1-(3-methylphenyl)-3-piperidinopropyl]quinaldinamide] | 25.4 | 11.7 |  | 
CCN(CC)CCNC(=O)c1ccc2ccccc2n1 [Control Compound 1, N-(2-diethylaminoethyl)quiinaldinamide fumarate, reference compound] |  | 1.2 | 30 | 
Cc1ccc(C(=O)C(C)CN2CCCCC2)cc1 (centres unmarked) [Control Compound 2, 2,4'-dimethyl-3-piperidinopropiophenone hydrochloride, reference compound] |  | 4.8 |  | 
CCN(CC)CCNC(=O)c1ccc2ccccc2n1 [N-(2-diethylaminoethyl)quinaldinamide, reference compound] |  |  |  | very weak rigidity relieving effect

— US4764617A, “Quinaldinamide derivatives” (Nippon Chemiphar Co., Ltd., priority 1986, dated 1988)
